Structures can show the parent of a compound that is named as a salt.
Assays:
Assay type in all cases: biochemical
Human Thrombin = Human Thrombin (Homo sapiens, UniProt P00734); assay: Inhibition of the amidase activity of thrombin (Kass); conditions: chromogenic substrate N-benzoyl-Phe-Val-Arg-p-nitroanilide; mean over range of concentrations
Human Plasma [1] = assay: Human plasma anticoagulation, activated partial thromboplastin time (APTT); conditions: concentration required to double the clotting time
Method: (§1) Dog plasma and rat plasma is obtained from conscious mixed-breed hounds (either sex, Hazelton-LRE, Kalamazoo, Mich., U.S.A.) or from anesthetized male Sprague-Dawley rats (Harlan Sprague-Dawley, Inc., Indianapolis, Ind., U.S.A.) by venipuncture into 3.8 percent citrate. Fibrinogen is prepared from in-date ACD human blood as the fraction I-2 according to previous procedures and specifications. […] Human fibrinogen is also purchased as 98 percent pure/plasmin free from American Diagnostica, Greenwich, Conn. Coagulation reagents ACTIN, Thromboplastin, and Human plasma are from Baxter Healthcare Corp., Dade Division, Miami, Fla. Bovine thrombin from Parke-Davis ([…], Mich.) is used for coagulation assays in plasma.
(§2) Coagulation assay procedures are as previously described. […] A CoAScreener coagulation instrument (American LABor, Inc.) is used for all coagulation assay measurements. The prothrombin time (PT) is measured by adding 0.05 mL saline and 0.05 mL Thromboplastin-C reagent to 0.05 mL test plasma. The activated partial thromboplastin time (APTT) is measured by incubation of 0.05 mL test plasma with 0.05 mL Actin reagent for 120 seconds followed by 0.05 mL CaCl2 (0.02M). The thrombin time (TT) is measured by adding 0.05 mL saline and 0.05 mL thrombin (10 NIH units/mL) to 0.05 mL test plasma. The compounds of Formula I are added to human or animal plasma over a wide range of concentrations to determine prolongation effects on the APTT, PT, and TT assays. Linear extrapolations are performed to estimate the concentrations required to double the clotting time for each assay.

Human Plasma [2] = assay: Human plasma anticoagulation, thrombin time (TT); conditions: concentration required to double the clotting time
Method: as §1, §2

Human Plasma [3] = assay: Human plasma anticoagulation, prothrombin time (PT); conditions: concentration required to double the clotting time
Method: as §1, §2

factor Xa = biological target: T1, factor Xa (Homo sapiens, UniProt P00742); assay: Kass, factor Xa chromogenic substrate assay; conditions: substrate N-Benzoyl-Ile-Glu-Gly-Arg-p-nitroanilide
T1 construct: Human factors X, Xa, IXa, XIa, and XIIa are purchased; purchased Enzyme Research Laboratories, South Bend, Ind
T1 sequence (P00742 235-488 limits assumed): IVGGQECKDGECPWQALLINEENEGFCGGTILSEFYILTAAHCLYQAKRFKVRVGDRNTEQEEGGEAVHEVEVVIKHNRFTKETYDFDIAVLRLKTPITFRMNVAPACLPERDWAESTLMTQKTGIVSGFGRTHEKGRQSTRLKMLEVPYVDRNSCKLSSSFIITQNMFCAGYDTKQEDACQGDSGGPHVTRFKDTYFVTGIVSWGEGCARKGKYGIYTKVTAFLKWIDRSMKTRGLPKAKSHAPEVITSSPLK
T1 sequence (P00742 41-179 partner limits assumed): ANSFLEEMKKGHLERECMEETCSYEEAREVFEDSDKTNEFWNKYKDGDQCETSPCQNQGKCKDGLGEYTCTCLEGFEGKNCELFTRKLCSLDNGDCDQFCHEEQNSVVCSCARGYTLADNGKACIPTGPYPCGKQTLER

Human plasmin = biological target: T2, Human plasmin (Homo sapiens, UniProt P00747); assay: Kass, plasmin chromogenic substrate assay; conditions: substrate H-D-Val-Leu-Lys-p-nitroanilide
T2 construct: Human plasmin is purchased from Boehringer Mannheim; purchased Boehringer Mannheim, Indianapolis, Ind
T2 sequence (P00747 581-810 limits assumed): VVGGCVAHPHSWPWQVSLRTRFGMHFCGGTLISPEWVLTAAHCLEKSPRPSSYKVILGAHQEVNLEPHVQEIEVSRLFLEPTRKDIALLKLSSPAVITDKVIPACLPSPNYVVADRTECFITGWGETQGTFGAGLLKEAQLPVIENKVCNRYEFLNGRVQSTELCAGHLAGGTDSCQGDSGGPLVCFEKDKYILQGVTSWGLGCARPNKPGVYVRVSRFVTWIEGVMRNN
T2 sequence (P00747 97-580 partner limits assumed): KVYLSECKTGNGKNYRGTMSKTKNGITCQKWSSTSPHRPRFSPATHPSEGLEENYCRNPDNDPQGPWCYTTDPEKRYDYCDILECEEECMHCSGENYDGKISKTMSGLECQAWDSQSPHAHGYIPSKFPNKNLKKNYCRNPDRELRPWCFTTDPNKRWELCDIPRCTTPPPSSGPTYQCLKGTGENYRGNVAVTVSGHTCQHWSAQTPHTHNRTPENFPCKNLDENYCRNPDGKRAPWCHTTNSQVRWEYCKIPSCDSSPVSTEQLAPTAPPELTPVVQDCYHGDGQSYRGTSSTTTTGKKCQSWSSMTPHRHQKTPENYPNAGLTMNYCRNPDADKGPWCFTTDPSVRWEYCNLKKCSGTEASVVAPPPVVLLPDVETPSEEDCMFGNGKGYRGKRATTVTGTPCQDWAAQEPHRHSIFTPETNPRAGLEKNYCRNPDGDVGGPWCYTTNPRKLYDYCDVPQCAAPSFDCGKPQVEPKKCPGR

Bovine trypsin = biological target: T3, Bovine trypsin (Bos taurus, UniProt P00760); assay: Kass, trypsin chromogenic substrate assay; conditions: substrate N-Benzoyl-Phe-Val-Arg-p-nitroanilide
T3 construct: Bovine trypsin is purchased from Worthington Biochemicals; purchased Worthington Biochemicals, Freehold, N.J
T3 sequence (P00760 24-246): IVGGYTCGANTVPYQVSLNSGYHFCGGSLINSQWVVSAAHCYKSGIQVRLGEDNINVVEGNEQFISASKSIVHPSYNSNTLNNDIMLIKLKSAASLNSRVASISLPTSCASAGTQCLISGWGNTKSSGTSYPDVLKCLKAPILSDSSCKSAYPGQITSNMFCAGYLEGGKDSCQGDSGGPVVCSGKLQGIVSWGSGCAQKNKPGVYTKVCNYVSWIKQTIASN

Compound	Kass × 10^6 (L/mole) Human Thrombin (Human Thrombin)	Kass × 10^6 (L/mole) Xa (factor Xa)	Kass × 10^6 (L/mole) Plasmin (Human plasmin)	Kass × 10^6 (L/mole) Trypsin (Bovine trypsin)	Human Plasma Anticoagulation 2x Clotting time APTT (Human Plasma [1])	Human Plasma Anticoagulation 2x Clotting time TT (Human Plasma [2])	Human Plasma Anticoagulation 2x Clotting time PT (Human Plasma [3])
Cl.Nc1ccc(CNC(=O)[C@@H]2CCCN2C(=O)[C@@H](CC2CCCCC2)NCC(=O)O)c(F)c1 [Example 64, HO2 CCH2 -D-Cha-Pro-4-NHCH2 -3-F-C6 H3 NH2.HCl]	15 × 10^6 L/mole	0.01 × 10^6 L/mole	–	–	900 ng/mL	23 ng/mL	650 ng/mL
CCS(=O)(=O)N[C@H](Cc1ccccc1)C(=O)N1CCC[C@H]1C(=O)NCCc1cccc(N=C(N)N)c1.Cl [Example 37, EtSO2 -D-Phe-Pro-m-NHCH2 CH2 C6 H4 NHC(NH)NH2.HCl]	0.02 × 10^6 L/mole	< 0.009 × 10^6 L/mole	–	–	> 9,000 ng/mL	> 9,000 ng/mL	> 9,000 ng/mL
N=C(N)Nc1cccc(CNC(=O)[C@@H]2CCCN2C(=O)[C@@H]2NCC[C@@H]3CCCC[C@@H]32)c1 [Example 40, D-1-Piq-Pro-m-NHCH2 C6 H4 NHC(NH)NH2.2HCl]	0.03 × 10^6 L/mole	< 0.001 × 10^6 L/mole	< 0.001 × 10^6 L/mole	0.01 × 10^6 L/mole	> 91,000 ng/mL	35,100 ng/mL	> 91,000 ng/mL
Cl.N=C(N)N1CC=C(CNC(=O)[C@@H]2CCCN2C(=O)[C@@H](CC2CCCCC2)NCC(=O)O)CC1 [Example 70, HO2 CCH2 -D-Cha-Pro-4-NHCH2 -1-amidino-3,4-dehydro-piperidine.HCl]	430 × 10^6 L/mole	–	–	9.8 × 10^6 L/mole	160 ng/mL	2 ng/mL	180 ng/mL
N=C(N)Nc1ccc(CNC(=O)[C@@H]2CCCN2C(=O)[C@@H]2NCC[C@@H]3CCCC[C@@H]32)cc1 [Example 38, D-1-Piq-Pro-p-NHCH2 C6 H4 NHC(NH)NH2.2HCl]	1.1 × 10^6 L/mole	< 0.001 × 10^6 L/mole	< 0.001 × 10^6 L/mole	0.07 × 10^6 L/mole	6,100 ng/mL	540 ng/mL	11,100 ng/mL
Cl.N=C(N)c1ccc(CNC(=O)[C@@H]2CCCN2C(=O)[C@@H](CC2CCCCC2)NCC(=O)O)c(F)c1 [Example 71, HO2 CCH2 -D-Cha-Pro-4-NHCH2 -3-F-benzamidine.HCl]	1,400 × 10^6 L/mole	–	–	240. × 10^6 L/mole	89 ng/mL	1 ng/mL	150 ng/mL
N=C(N)Nc1cccc(CCNC(=O)[C@@H]2CCCN2C(=O)[C@@H]2NCC[C@@H]3CCCC[C@@H]32)c1 [Example 41, D-1-Piq-Pro-m-NHCH2 CH2 C6 H4 NHC(NH)NH2.2HCl]	0.01 × 10^6 L/mole	< 0.001 × 10^6 L/mole	< 0.001 × 10^6 L/mole	< 0.001 × 10^6 L/mole	> 91,000 ng/mL	82,200 ng/mL	> 91,000 ng/mL
N=C(N)Nc1ccc(CCNC(=O)[C@@H]2CCCN2C(=O)[C@@H]2NCC[C@@H]3CCCC[C@@H]32)cc1 [Example 39, D-1-Piq-Pro-p-NHCH2 CH2 C6 H4 NHC (NH) NH2.2HCl]	0.12 × 10^6 L/mole	< 0.001 × 10^6 L/mole	< 0.001 × 10^6 L/mole	< 0.02 × 10^6 L/mole	69,200 ng/mL	5,300 ng/mL	78,600 ng/mL
Cl.N=C(N)c1ccc(CNC(=O)[C@@H]2CCCN2C(=O)[C@@H](CC2CCCCC2)NCC(=O)O)nn1 [Example 69, HO2 CCH2 -D-Cha-Pro-3-NHCH2 -6-amidinopyridazine.HCl]	340 × 10^6 L/mole	–	–	3.7 × 10^6 L/mole	110 ng/mL	5. ng/mL	220 ng/mL

Continued, in another order:

Kass × 10^6 (L/mole) Human Thrombin (Human Thrombin)	Kass × 10^6 (L/mole) Xa (factor Xa)	Kass × 10^6 (L/mole) Plasmin (Human plasmin)	Kass × 10^6 (L/mole) Trypsin (Bovine trypsin)	Compound	Human Plasma Anticoagulation 2x Clotting time APTT (Human Plasma [1])	Human Plasma Anticoagulation 2x Clotting time TT (Human Plasma [2])	Human Plasma Anticoagulation 2x Clotting time PT (Human Plasma [3])
410 × 10^6 L/mole	3.9 × 10^6 L/mole	–	–	N=C(N)c1ccc(CNC(=O)[C@@H]2CCCN2C(=O)[C@@H](CCC2CCCCC2)NCC(=O)O)cc1 [Example 88, HOOCCH2 -D-hCha-Pro-p-NHCH2 C6 H4 C(NH)NH2.HCl]	100 ng/mL	4 ng/mL	200 ng/mL
3.6 × 10^6 L/mole	0.007 × 10^6 L/mole	–	–	CCC(CC)C(=O)N[C@@H](CCS(C)(=O)=O)C(=O)N1CCC[C@H]1C(=O)NCc1ccc(C(=N)N)cc1 [Example 91, (C2 H5)2 CHCO-Met(O2)-Pro-p-NHCH2 C6 H4 C(NH)NH2.HCl]	3,000 ng/mL	63 ng/mL	3,500 ng/mL
12 × 10^6 L/mole	–	–	0.36 × 10^6 L/mole	Cl.Nc1cc(CCNC(=O)[C@@H]2CCCN2C(=O)[C@@H](CC2CCCCC2)NCC(=O)O)ccn1 [Example 76, HO2 CCH2 -D-Cha-Pro-4-NHCH2 CH2 -2-aminopyridine.HCl]	490 ng/mL	29 ng/mL	560 ng/mL
5.3 × 10^6 L/mole	–	–	2.1 × 10^6 L/mole	CCS(=O)(=O)N[C@H](CC1CCCCC1)C(=O)N1CCC[C@H]1C(=O)NCc1ccc(CN)cc1 [Example 81, EtSO2 -D-Cha-Pro-4-NHCH2 C6 H4 CH2 NH2.HCl]	1,500 ng/mL	110 ng/mL	2,700 ng/mL
11 × 10^6 L/mole	–	–	8.6 × 10^6 L/mole	NCc1ccc(CNC(=O)[C@@H]2CCCN2C(=O)[C@@H](CC2CCCCC2)NCC(=O)O)cc1 [Example 78, HO2 CCH2 -D-Cha-Pro-4-NHCH2 C6 H4 CH2 NH2.HCl]	430 ng/mL	46 ng/mL	760 ng/mL
0.14 × 10^6 L/mole	0.071 × 10^6 L/mole	–	–	Cl.N=C(N)c1ccc(CNC(=O)CN(CCc2ccccc2)C(=O)CNCC(=O)O)cc1 [Example 89, HOOCCH2 -Gly-N-C6 H5 CH2 CH2 Gly-p-NHCH2 C6 H4 C(NH)NH2.HCl]	51,000 ng/mL	570 ng/mL	37,000 ng/mL
30 × 10^6 L/mole	2.5 × 10^6 L/mole	–	–	HOOCCH2 -D-hPhe-Pro-p-NHCH2 C6 H4 C(NH)NH2.HCl [Example 87]	260 ng/mL	9 ng/mL	310 ng/mL
130 × 10^6 L/mole	–	–	7.7 × 10^6 L/mole	CS(=O)(=O)CC(=O)N[C@H](CC1CCCCC1)C(=O)N1CCC[C@H]1C(=O)NCc1ccc(C(=N)N)cc1 [Example 92, MeSO2 CH2 CO-D-Cha-Pro-P-NHCH2 C6 H4 C(NH)NH2.HCl]	210 ng/mL	8.9 ng/mL	340 ng/mL
